Values of other authors as cited in patent US12427123B2, “Phenylephrine hydrochloride compositions and containers” (Endo Operations Limited, priority 2020, dated 2025).
Read-outs that look alike come from different tables or passages of the source.

Experiments:
[1] = not given; remark: listed apart in the source

solubility (chloroform)	solubility (ethanol)	solubility (ethyl ether)	solubility (water)	dose excreted unchanged in the urine ([1]; in vivo)	α-phase half-life ([1]; intravenous administration, 2-compartment model, distribution from central compartment)	optical stability (racemization as a function of pH) (solutions at pH 3.0 and pH 6.0)	Compound
insoluble	freely soluble	insoluble	very soluble	–	–	–	CNC[C@H](O)c1cccc(O)c1.Cl [Phenylephrine hydrochloride]
–	–	–	–	12%	< 5 min	optically stable	CNC[C@H](O)c1cccc(O)c1 [phenylephrine]
